Experimental data published in US9636418B2 (priority 2013, dated 2017).
Values joined by “and” are separate entries in the source; they are usually repeats but may differ in a detail not shown here. Equal values may be shown once. Read-outs that look alike come from different tables or passages of the source.

Tests used:
hNav1.7 = hNav1.7 (Homo sapiens, UniProt Q15858); experiment: cell-based; assay type: cell-based
hNav1.4 = hNav1.4 (Homo sapiens, UniProt P35499); experiment: cell-based; details: for IC50: PatchXpress, read-out: PX hNav1.4 Tonic IC50
[1] = PatchXpress, * = at high concentrations compound would wash off slowly or not at all, read-out: PX hNav1.7 Tonic IC50
[2] = * = at high concentrations compound would wash off slowly or not at all
[3] = PatchXpress, tonic block, read-out: PX hNav1.7 Tonic IC50

Chain of hNav1.7 (Q15858 whole entry): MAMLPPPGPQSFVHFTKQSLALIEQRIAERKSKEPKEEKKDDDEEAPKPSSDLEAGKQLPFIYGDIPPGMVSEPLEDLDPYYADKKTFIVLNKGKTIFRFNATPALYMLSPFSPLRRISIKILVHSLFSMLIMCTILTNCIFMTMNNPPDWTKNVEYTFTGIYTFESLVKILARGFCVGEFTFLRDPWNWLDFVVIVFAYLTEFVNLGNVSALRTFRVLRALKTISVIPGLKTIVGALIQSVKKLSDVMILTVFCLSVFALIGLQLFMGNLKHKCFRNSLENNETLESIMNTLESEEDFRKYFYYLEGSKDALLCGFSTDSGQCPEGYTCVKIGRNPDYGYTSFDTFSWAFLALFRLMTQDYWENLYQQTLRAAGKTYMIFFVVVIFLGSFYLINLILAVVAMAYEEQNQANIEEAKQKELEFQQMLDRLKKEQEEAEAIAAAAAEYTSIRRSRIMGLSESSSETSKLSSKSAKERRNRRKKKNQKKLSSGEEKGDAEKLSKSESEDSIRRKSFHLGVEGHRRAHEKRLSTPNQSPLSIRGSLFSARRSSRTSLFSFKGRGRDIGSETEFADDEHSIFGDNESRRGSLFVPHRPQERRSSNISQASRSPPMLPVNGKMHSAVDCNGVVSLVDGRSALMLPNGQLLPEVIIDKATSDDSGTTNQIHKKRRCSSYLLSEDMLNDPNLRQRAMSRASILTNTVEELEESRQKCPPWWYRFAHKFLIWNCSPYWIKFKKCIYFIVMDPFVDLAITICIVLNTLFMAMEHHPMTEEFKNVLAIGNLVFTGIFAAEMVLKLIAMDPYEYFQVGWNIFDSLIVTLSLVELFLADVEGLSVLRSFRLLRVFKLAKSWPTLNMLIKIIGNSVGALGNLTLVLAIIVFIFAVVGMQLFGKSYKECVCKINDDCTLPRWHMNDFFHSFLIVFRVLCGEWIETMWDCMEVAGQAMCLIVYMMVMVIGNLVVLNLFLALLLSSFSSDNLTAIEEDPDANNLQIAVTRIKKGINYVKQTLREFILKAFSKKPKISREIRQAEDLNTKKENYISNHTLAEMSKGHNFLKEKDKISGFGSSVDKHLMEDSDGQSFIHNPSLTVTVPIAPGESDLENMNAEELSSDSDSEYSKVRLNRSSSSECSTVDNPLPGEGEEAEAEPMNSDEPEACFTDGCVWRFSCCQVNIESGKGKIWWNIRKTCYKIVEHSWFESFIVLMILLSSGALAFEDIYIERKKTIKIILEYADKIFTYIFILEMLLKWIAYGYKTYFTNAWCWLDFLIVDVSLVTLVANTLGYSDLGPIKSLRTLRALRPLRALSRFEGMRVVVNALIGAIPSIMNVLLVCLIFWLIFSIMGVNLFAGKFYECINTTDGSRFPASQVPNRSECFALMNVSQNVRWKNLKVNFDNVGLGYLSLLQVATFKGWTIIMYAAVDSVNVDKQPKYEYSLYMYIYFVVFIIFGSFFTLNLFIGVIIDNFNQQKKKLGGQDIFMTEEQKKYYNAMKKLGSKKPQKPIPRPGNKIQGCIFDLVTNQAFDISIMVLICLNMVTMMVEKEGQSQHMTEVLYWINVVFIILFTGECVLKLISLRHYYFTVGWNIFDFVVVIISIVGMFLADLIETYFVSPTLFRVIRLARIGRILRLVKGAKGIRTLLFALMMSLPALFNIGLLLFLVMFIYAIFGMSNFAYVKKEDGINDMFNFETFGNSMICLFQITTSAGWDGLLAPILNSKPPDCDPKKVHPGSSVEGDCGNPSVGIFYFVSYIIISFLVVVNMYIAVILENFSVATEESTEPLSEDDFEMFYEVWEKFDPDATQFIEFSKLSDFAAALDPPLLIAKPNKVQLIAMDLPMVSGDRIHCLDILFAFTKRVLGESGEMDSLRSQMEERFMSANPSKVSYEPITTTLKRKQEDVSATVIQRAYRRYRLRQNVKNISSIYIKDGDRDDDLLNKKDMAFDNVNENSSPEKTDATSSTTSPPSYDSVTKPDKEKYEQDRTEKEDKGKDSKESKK
Chain of hNav1.4 (P35499 whole entry): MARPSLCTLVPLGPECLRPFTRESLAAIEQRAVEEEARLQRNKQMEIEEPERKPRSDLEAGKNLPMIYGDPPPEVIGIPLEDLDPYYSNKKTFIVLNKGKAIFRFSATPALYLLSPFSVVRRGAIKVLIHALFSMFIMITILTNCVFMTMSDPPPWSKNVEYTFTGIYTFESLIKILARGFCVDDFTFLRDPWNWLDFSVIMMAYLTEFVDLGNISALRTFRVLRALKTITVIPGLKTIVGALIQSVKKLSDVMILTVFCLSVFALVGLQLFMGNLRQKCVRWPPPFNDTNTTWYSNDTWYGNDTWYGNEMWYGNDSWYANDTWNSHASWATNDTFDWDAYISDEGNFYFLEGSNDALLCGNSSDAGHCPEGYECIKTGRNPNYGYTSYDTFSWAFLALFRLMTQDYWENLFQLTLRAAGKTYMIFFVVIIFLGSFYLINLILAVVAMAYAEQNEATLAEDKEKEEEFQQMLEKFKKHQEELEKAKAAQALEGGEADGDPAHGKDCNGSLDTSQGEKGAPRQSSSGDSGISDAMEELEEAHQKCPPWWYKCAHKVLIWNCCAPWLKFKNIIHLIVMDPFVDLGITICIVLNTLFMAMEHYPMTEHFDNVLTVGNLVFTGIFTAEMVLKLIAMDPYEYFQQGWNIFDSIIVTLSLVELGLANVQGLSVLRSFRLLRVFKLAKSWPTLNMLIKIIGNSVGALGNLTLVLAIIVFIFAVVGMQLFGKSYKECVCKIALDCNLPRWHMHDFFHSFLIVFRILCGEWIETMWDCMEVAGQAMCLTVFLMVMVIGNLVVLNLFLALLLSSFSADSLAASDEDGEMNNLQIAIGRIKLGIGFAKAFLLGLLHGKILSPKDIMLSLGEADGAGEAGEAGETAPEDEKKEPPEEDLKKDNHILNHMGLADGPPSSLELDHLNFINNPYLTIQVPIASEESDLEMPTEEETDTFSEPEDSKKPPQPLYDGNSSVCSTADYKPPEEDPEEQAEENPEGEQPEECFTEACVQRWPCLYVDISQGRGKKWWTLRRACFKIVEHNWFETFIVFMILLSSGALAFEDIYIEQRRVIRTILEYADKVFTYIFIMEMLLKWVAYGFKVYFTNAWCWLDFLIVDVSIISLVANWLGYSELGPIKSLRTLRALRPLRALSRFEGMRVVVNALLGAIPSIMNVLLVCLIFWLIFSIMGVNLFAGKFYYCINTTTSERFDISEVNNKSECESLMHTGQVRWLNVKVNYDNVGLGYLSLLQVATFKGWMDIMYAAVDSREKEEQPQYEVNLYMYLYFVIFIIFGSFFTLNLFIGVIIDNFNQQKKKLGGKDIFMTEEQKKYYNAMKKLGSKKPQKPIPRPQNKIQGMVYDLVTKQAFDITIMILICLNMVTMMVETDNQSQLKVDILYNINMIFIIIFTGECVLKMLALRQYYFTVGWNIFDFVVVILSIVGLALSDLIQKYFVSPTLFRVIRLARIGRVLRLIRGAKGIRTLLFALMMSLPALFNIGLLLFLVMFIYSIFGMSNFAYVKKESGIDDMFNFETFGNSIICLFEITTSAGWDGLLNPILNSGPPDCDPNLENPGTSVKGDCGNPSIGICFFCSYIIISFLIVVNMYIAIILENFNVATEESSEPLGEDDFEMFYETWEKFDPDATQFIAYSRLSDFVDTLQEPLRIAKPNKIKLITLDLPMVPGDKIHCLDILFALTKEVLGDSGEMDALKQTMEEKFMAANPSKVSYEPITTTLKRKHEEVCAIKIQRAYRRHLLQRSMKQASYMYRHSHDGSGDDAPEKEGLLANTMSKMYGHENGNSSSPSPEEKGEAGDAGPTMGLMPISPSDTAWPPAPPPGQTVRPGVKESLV

Compound	IC50 (hNav1.7; [1]) [nM]	IC50 (hNav1.7; [3])	other results
CCCC[C@@H]1NC(=O)[C@H](Cc2c[nH]c3ccccc23)NC(=O)[C@H](CCCCN)NC(=O)[C@H](CCC(N)=O)NC(=O)[C@@H](NC(=O)[C@@H](N)Cc2cn(CCCOCCOCCOCCOCCOCCOCCOCCOCCOCCOCCN)nn2)CSSC[C@@H]2NC(=O)[C@@H]3CSSC[C@@H](C(=O)N[C@@H](CCCNC(=N)N)C(=O)N[C@@H](CCCCN)C(=O)N[C@H](C(=O)N[C@H](C(N)=O)[C@@H](C)CC)[C@@H](C)CC)NC(=O)[C@H](Cc4c[nH]c5ccccc45)NC(=O)[C@H](CC(C)C)NC(=O)[C@H](CCCCN)NC(=O)[C@H](CSSC[C@H](NC(=O)[C@H]([C@@H](C)O)NC(=O)[C@H](Cc4c[nH]c5ccccc45)NC1=O)C(=O)N[C@@H](CC(=O)O)C(=O)N[C@@H](CO)C(=O)N[C@@H](CCCCN)C(=O)N[C@@H](CCCNC(=N)N)C(=O)N[C@@H](C)C(=O)N3)NC(=O)[C@H](CCC(=O)O)NC(=O)[C@H](CC(C)C)NC(=O)CNC(=O)[C@H](CCC(=O)O)NC2=O [compound 407]	6.48		IC50 (hNav1.4; [2]): 549 nM
CCCC[C@@H]1NC(=O)[C@H](Cc2c[nH]c3ccccc23)NC(=O)[C@H](CCCCN)NC(=O)[C@H](CCC(N)=O)NC(=O)[C@@H](NC(=O)[C@@H](N)Cc2ccc(O)cc2)CSSC[C@@H]2NC(=O)[C@@H]3CSSC[C@@H](C(=O)N[C@@H](CCCNC(=N)N)C(=O)N[C@@H](CCCCN)C(=O)N[C@@H](CCC(=O)O)C(=O)N[C@H](C(N)=O)[C@@H](C)CC)NC(=O)[C@H](Cc4c[nH]c5ccccc45)NC(=O)[C@H](CC(C)C)NC(=O)[C@H](CCCCN)NC(=O)[C@H](CSSC[C@H](NC(=O)[C@H]([C@@H](C)O)NC(=O)[C@H](Cc4c[nH]c5ccccc45)NC1=O)C(=O)N[C@@H](CC(=O)O)C(=O)N[C@@H](CO)C(=O)N[C@@H](CCCCN)C(=O)N[C@@H](CCCNC(=N)N)C(=O)N[C@@H](C)C(=O)N3)NC(=O)[C@H](CCCNC(=N)N)NC(=O)[C@H](CC(C)C)NC(=O)CNC(=O)[C@H](Cc1cn(CCCOCCOCCOCCOCCOCCOCCOCCOCCOCCOCCN)nn1)NC2=O [compound 406]	5.88		IC50 (hNav1.4; [2]): 65.9 nM; Nav1.4/Nav1.7 (hNav1.4; ratio of PX IC50 values): 11
C#CC[C@H](N)C(=O)NCCCC[C@@H]1NC(=O)[C@H](CCCNC(=N)N)NC(=O)[C@H](CCCCN)NC(=O)[C@H](CO)NC(=O)[C@H](CC(=O)O)NC(=O)[C@@H]2CSSC[C@@H]3NC(=O)[C@H](CCCNC(=N)N)NC(=O)[C@H](CC(C)C)NC(=O)CNC(=O)[C@H](CCC(=O)O)NC(=O)[C@H](CSSC[C@H](NC(=O)[C@H](Cc4ccc(O)cc4)NC(=O)[C@@H](N)CCC)C(=O)N[C@@H](CCC(N)=O)C(=O)N[C@@H](CCCCN)C(=O)N[C@@H](Cc4c[nH]c5ccccc45)C(=O)N[C@@H](CCCC)C(=O)N[C@@H](Cc4c[nH]c5ccccc45)C(=O)N[C@@H]([C@@H](C)O)C(=O)N2)NC(=O)[C@H](CSSC[C@@H](C(=O)N[C@@H](CCCNC(=N)N)C(=O)N[C@@H](CCCCN)C(=O)N[C@@H](CCC(=O)O)C(=O)N[C@H](C(N)=O)[C@@H](C)CC)NC(=O)[C@H](Cc2c[nH]c4ccccc24)NC(=O)[C@H](CC(C)C)NC(=O)[C@H](CCCCN)NC3=O)NC1=O [compound 435]		2.19 nM	IC50 (hNav1.4; tonic block): 217 nM; Nav1.4/Nav1.7 (hNav1.4; ratio of PX tonic IC50 values): 99
C#CC[C@H](N)C(=O)NCCCC[C@@H]1NC(=O)[C@H](CCCNC(=N)N)NC(=O)[C@H](CCCCN)NC(=O)[C@H](CO)NC(=O)[C@H](CC(=O)O)NC(=O)[C@@H]2CSSC[C@@H]3NC(=O)[C@H](CCCNC(=N)N)NC(=O)[C@H](CC(C)C)NC(=O)CNC(=O)[C@H](CCC(=O)O)NC(=O)[C@H](CSSC[C@H](NC(=O)[C@H](Cc4ccc(O)cc4)NC(=O)[C@@H](N)CCC)C(=O)N[C@@H](CCC(N)=O)C(=O)N[C@@H](CCCCN)C(=O)N[C@@H](Cc4c[nH]c5ccccc45)C(=O)N[C@@H](CC(C)C)C(=O)N[C@@H](Cc4c[nH]c5ccccc45)C(=O)N[C@@H]([C@@H](C)O)C(=O)N2)NC(=O)[C@H](CSSC[C@@H](C(=O)N[C@@H](CCCNC(=N)N)C(=O)N[C@@H](CCCCN)C(=O)N[C@H](C(=O)N[C@H](C(N)=O)[C@@H](C)CC)[C@@H](C)CC)NC(=O)[C@H](Cc2c[nH]c4ccccc24)NC(=O)[C@H](CC(C)C)NC(=O)[C@H](CCCCN)NC3=O)NC1=O [compound 438]		2.38 nM and 1.57 nM	IC50 (hNav1.4; tonic block): 16.1 nM; Nav1.4/Nav1.7 (hNav1.4; ratio of PX tonic IC50 values): 7
CCCC[C@@H]1NC(=O)[C@H](Cc2c[nH]c3ccccc23)NC(=O)[C@H](CCCCN)NC(=O)[C@H](CCC(N)=O)NC(=O)[C@@H](NC(=O)[C@H](Cc2ccc(O)cc2)NC(=O)[C@@H](N)C(C)C)CSSC[C@@H]2NC(=O)[C@@H]3CSSC[C@@H](C(=O)N[C@@H](CCCNC(=N)N)C(=O)N[C@@H](CCCCN)C(=O)N[C@H](C(=O)N[C@H](C(N)=O)[C@@H](C)CC)[C@@H](C)CC)NC(=O)[C@H](Cc4c[nH]c5ccccc45)NC(=O)[C@H](CC(C)C)NC(=O)[C@H](CCCCN)NC(=O)[C@H](CSSC[C@H](NC(=O)[C@H]([C@@H](C)O)NC(=O)[C@H](Cc4c[nH]c5ccccc45)NC1=O)C(=O)N[C@@H](CC(=O)O)C(=O)N[C@@H](CO)C(=O)N[C@@H](CCCCN)C(=O)N[C@@H](CCCNC(=N)N)C(=O)N[C@@H](C)C(=O)N3)NC(=O)[C@H](CCCNC(=N)N)NC(=O)[C@H](CC(C)C)NC(=O)CNC(=O)[C@H](CCC(=O)O)NC2=O [compound 363]	0.551		
C#CC[C@H](N)C(=O)NCCCC[C@@H]1NC(=O)[C@H](CCCNC(=N)N)NC(=O)[C@H](CCCCN)NC(=O)[C@H](CO)NC(=O)[C@H](CC(=O)O)NC(=O)[C@@H]2CSSC[C@@H]3NC(=O)[C@H](CCC(=O)O)NC(=O)[C@H](CC(C)C)NC(=O)CNC(=O)[C@H](CCC(=O)O)NC(=O)[C@H](CSSC[C@H](NC(=O)[C@H](Cc4ccc(O)cc4)NC(=O)[C@@H](N)CCC)C(=O)N[C@@H](CCC(N)=O)C(=O)N[C@@H](CCCCN)C(=O)N[C@@H](Cc4c[nH]c5ccccc45)C(=O)N[C@@H](CC(C)C)C(=O)N[C@@H](Cc4c[nH]c5ccccc45)C(=O)N[C@@H]([C@@H](C)O)C(=O)N2)NC(=O)[C@H](CSSC[C@@H](C(=O)N[C@@H](CCCNC(=N)N)C(=O)N[C@@H](CCCCN)C(=O)N[C@H](C(=O)N[C@@H](Cc2c[nH]c4ccccc24)C(N)=O)[C@@H](C)CC)NC(=O)[C@H](Cc2c[nH]c4ccccc24)NC(=O)[C@H](CC(C)C)NC(=O)[C@H](CCCCN)NC3=O)NC1=O [compound 441]		10.4 nM	
CCCC[C@@H]1NC(=O)[C@H](Cc2c[nH]c3ccccc23)NC(=O)[C@H](CCCCN)NC(=O)[C@H](CCC(N)=O)NC(=O)[C@@H](NC(=O)[C@H](Cc2ccc(O)cc2)NC(=O)[C@@H](N)Cc2ccccc2)CSSC[C@@H]2NC(=O)[C@@H]3CSSC[C@@H](C(=O)N[C@@H](CCCNC(=N)N)C(=O)N[C@@H](CCCCN)C(=O)N[C@H](C(=O)N[C@H](C(N)=O)[C@@H](C)CC)[C@@H](C)CC)NC(=O)[C@H](Cc4c[nH]c5ccccc45)NC(=O)[C@H](CC(C)C)NC(=O)[C@H](CCCCN)NC(=O)[C@H](CSSC[C@H](NC(=O)[C@H]([C@@H](C)O)NC(=O)[C@H](Cc4c[nH]c5ccccc45)NC1=O)C(=O)N[C@@H](CC(=O)O)C(=O)N[C@@H](CO)C(=O)N[C@@H](CCCCN)C(=O)N[C@@H](CCCNC(=N)N)C(=O)N[C@@H](C)C(=O)N3)NC(=O)[C@H](CCCNC(=N)N)NC(=O)[C@H](CC(C)C)NC(=O)CNC(=O)[C@H](CCC(=O)O)NC2=O [compound 358]	0.493		
[Phe6,Atz(500 Da EtO-PEG*-{[Phe6,Atz13*]GpTx-1(1-34)})13]GpTx-1(1-34) [Homodimeric Conjugate No. 4]			Wash out (hNav1.7): Yes; IC50 (hNav1.7; read-out: Nav1.7 PX IC50): 19 nM
C#CC[C@H](N)C(=O)NCCCC[C@@H]1NC(=O)[C@H](CCCNC(=N)N)NC(=O)[C@H](CCCCN)NC(=O)[C@H](CO)NC(=O)[C@H](CC(=O)O)NC(=O)[C@@H]2CSSC[C@@H]3NC(=O)[C@H](CCC(=O)O)NC(=O)[C@H](CC(C)C)NC(=O)CNC(=O)[C@H](CCC(=O)O)NC(=O)[C@H](CSSC[C@H](NC(=O)[C@H](Cc4ccc(O)cc4)NC(=O)[C@@H](N)CCC)C(=O)N[C@@H](CCC(N)=O)C(=O)N[C@@H](CCCCN)C(=O)N[C@@H](Cc4c[nH]c5ccccc45)C(=O)N[C@@H](CCCC)C(=O)N[C@@H](Cc4c[nH]c5ccccc45)C(=O)N[C@@H]([C@@H](C)O)C(=O)N2)NC(=O)[C@H](CSSC[C@@H](C(=O)N[C@@H](CCCNC(=N)N)C(=O)N[C@@H](CCCCN)C(=O)N[C@H](C(=O)N[C@@H](Cc2c[nH]c4ccccc24)C(N)=O)[C@@H](C)CC)NC(=O)[C@H](Cc2c[nH]c4ccccc24)NC(=O)[C@H](CC(C)C)NC(=O)[C@H](CCCCN)NC3=O)NC1=O [compound 437]		9.59 nM	
C#CC[C@H](N)C(=O)NCCCC[C@@H]1NC(=O)[C@H](CCCNC(=N)N)NC(=O)[C@H](CCCCN)NC(=O)[C@H](CO)NC(=O)[C@H](CC(=O)O)NC(=O)[C@@H]2CSSC[C@@H]3NC(=O)[C@H](CCCNC(=N)N)NC(=O)[C@H](CC(C)C)NC(=O)CNC(=O)[C@H](CCC(=O)O)NC(=O)[C@H](CSSC[C@H](NC(=O)[C@H](Cc4ccc(O)cc4)NC(=O)[C@@H](N)CCC)C(=O)N[C@@H](CCC(N)=O)C(=O)N[C@@H](CCCCN)C(=O)N[C@@H](Cc4c[nH]c5ccccc45)C(=O)N[C@@H](CC(C)C)C(=O)N[C@@H](Cc4c[nH]c5ccccc45)C(=O)N[C@@H]([C@@H](C)O)C(=O)N2)NC(=O)[C@H](CSSC[C@@H](C(=O)N[C@@H](CCCNC(=N)N)C(=O)N[C@@H](CCCCN)C(=O)N[C@@H](CCC(=O)O)C(=O)N[C@H](C(N)=O)[C@@H](C)CC)NC(=O)[C@H](Cc2c[nH]c4ccccc24)NC(=O)[C@H](CC(C)C)NC(=O)[C@H](CCCCN)NC3=O)NC1=O [compound 439]		1.04 nM and 1.37 nM and 0.384 nM and 0.612 nM	
